Laboratory results published in the supplement of paper PMC10307832.

Key:
Test in all cases: relative viability (nuclei count vs DMSO), 5 days (fraction); higher = more cells survive
[1] = compound: Cc1nc(C(=O)NCC(=O)O)c(O)c2ccc(Oc3ccccc3)cc12 [FG-4592] + Nc1nc2[nH]cc(CCc3ccc(C(=O)N[C@@H](CCC(=O)O)C(=O)O)cc3)c2c(=O)[nH]1 [Pemetrexed] (partner 0.2 µM)
Procedure, shortened: (§1)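 Lung cancer cell lines in 1536-well plates got either a single drug or a fixed anchor-drug dose together with five library-drug doses (not always all listed) in √10 steps, by pin tool, on the day after seeding. Nuclei were counted after 5 days, and relative viability is the treated-to-vehicle ratio of nuclei counts. Values are medians of duplicate plates.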

[2] = compound: CC1=CC(=C(N1C2=CC=C(C=C2)Cl)C)C(=O)CN3CCCCC3 [IU1-47] + COc1cccc2cc(-c3nc([C@H]4CC[C@H](C(=O)O)CC4)n4ncnc(N)c34)[nH]c12 [OSI-027] (partner 0.5 µM)
Procedure, shortened: as §1

[3] = compound: Cc1nc(C(=O)NCC(=O)O)c(O)c2ccc(Oc3ccccc3)cc12 [FG-4592]
Procedure, shortened: (§2)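 Only plates meeting two conditions passed: control CV below 25% and at least one doubling. Lung cancer cell lines, kept overnight at 37 °C in 1536-well plates, were pinned with five library-drug doses (not always all listed) √10 apart on vehicle-anchored plates and grown 5 days without medium change. A one-step fix, permeabilisation and Hoechst stain preceded 4× imaging and MetaXpress nuclear counting. Viability equals treated-well nuclei divided by vehicle-well nuclei, as the median over plates.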

[4] = compound: CC1=CC(=C(N1C2=CC=C(C=C2)Cl)C)C(=O)CN3CCCCC3 [IU1-47]
Procedure, shortened: as §2

NCI-H2342
relative viability ([1]; first compound 0.08 µM): 0.682
relative viability ([1]; first compound 0.253 µM): 0.767
relative viability ([1]; first compound 0.8 µM): 0.77
relative viability ([1]; first compound 2.53 µM): 0.8
relative viability ([1]; first compound 8 µM): 0.738
relative viability ([2]; first compound 0.08 µM): 0.668
relative viability ([2]; first compound 0.253 µM): 0.69
relative viability ([2]; first compound 0.8 µM): 0.578
relative viability ([2]; first compound 2.53 µM): 0.517
relative viability ([2]; first compound 8 µM): 0.619
relative viability ([3]; 0.08 µM): 0.985
relative viability ([3]; 0.253 µM): 0.97
relative viability ([3]; 0.8 µM): 0.839
relative viability ([3]; 2.53 µM): 0.812
relative viability ([3]; 8 µM): 0.82
relative viability ([4]; 0.08 µM): 1.03
relative viability ([4]; 0.253 µM): 1.03
relative viability ([4]; 0.8 µM): 1.28
relative viability ([4]; 2.53 µM): 1.15
relative viability ([4]; 8 µM): 0.985

NCI-H2347
relative viability ([1]; first compound 0.08 µM): 0.411
relative viability ([1]; first compound 0.253 µM): 0.417
relative viability ([1]; first compound 0.8 µM): 0.439
relative viability ([1]; first compound 2.53 µM): 0.425
relative viability ([1]; first compound 8 µM): 0.478
relative viability ([2]; first compound 0.08 µM): 0.318
relative viability ([2]; first compound 0.253 µM): 0.456
relative viability ([2]; first compound 0.8 µM): 0.43
relative viability ([2]; first compound 2.53 µM): 0.398
relative viability ([2]; first compound 8 µM): 0.375
relative viability ([3]; 0.08 µM): 0.873
relative viability ([3]; 0.253 µM): 0.738
relative viability ([3]; 0.8 µM): 0.955
relative viability ([3]; 2.53 µM): 0.936
relative viability ([3]; 8 µM): 1.05
relative viability ([4]; 0.08 µM): 1.11
relative viability ([4]; 0.253 µM): 1.02
relative viability ([4]; 0.8 µM): 1.04
relative viability ([4]; 2.53 µM): 0.828
relative viability ([4]; 8 µM): 1.01

NCI-H2405
relative viability ([1]; first compound 0.08 µM): 0.81
relative viability ([1]; first compound 0.253 µM): 1.01
relative viability ([1]; first compound 0.8 µM): 0.949
relative viability ([1]; first compound 2.53 µM): 0.792
relative viability ([1]; first compound 8 µM): 0.984
relative viability ([2]; first compound 0.08 µM): 0.664
relative viability ([2]; first compound 0.253 µM): 0.663
relative viability ([2]; first compound 0.8 µM): 0.695
relative viability ([2]; first compound 2.53 µM): 0.533
relative viability ([2]; first compound 8 µM): 0.618
relative viability ([3]; 0.08 µM): 0.869
relative viability ([3]; 0.253 µM): 0.826
relative viability ([3]; 0.8 µM): 0.912
relative viability ([3]; 2.53 µM): 0.928
relative viability ([3]; 8 µM): 0.944
relative viability ([4]; 0.08 µM): 1.07
relative viability ([4]; 0.253 µM): 1.06
relative viability ([4]; 0.8 µM): 1.03
relative viability ([4]; 2.53 µM): 0.863
relative viability ([4]; 8 µM): 1.01

NCI-H3122
relative viability ([1]; first compound 0.08 µM): 0.197
relative viability ([1]; first compound 0.253 µM): 0.191
relative viability ([1]; first compound 0.8 µM): 0.194
relative viability ([1]; first compound 2.53 µM): 0.187
relative viability ([1]; first compound 8 µM): 0.211
relative viability ([2]; first compound 0.08 µM): 1.07
relative viability ([2]; first compound 0.253 µM): 0.961
relative viability ([2]; first compound 0.8 µM): 1.05
relative viability ([2]; first compound 2.53 µM): 0.987
relative viability ([2]; first compound 8 µM): 0.954
relative viability ([3]; 0.08 µM): 1.03
relative viability ([3]; 0.253 µM): 0.957
relative viability ([3]; 0.8 µM): 1.06
relative viability ([3]; 2.53 µM): 1.07
relative viability ([3]; 8 µM): 1.03
relative viability ([4]; 0.08 µM): 1.07
relative viability ([4]; 0.253 µM): 1.07
relative viability ([4]; 0.8 µM): 1.01
relative viability ([4]; 2.53 µM): 1.04
relative viability ([4]; 8 µM): 0.974

PC-3 [JPC-3]
relative viability ([1]; first compound 0.08 µM): 1.09
relative viability ([1]; first compound 0.253 µM): 1.02
relative viability ([1]; first compound 2.53 µM): 1.19
relative viability ([1]; first compound 8 µM): 1.05
relative viability ([2]; first compound 0.08 µM): 0.796
relative viability ([2]; first compound 0.253 µM): 0.874
relative viability ([2]; first compound 0.8 µM): 0.716
relative viability ([2]; first compound 2.53 µM): 0.705
relative viability ([2]; first compound 8 µM): 0.555
relative viability ([3]; 0.08 µM): 1.06
relative viability ([3]; 0.253 µM): 0.948
relative viability ([3]; 0.8 µM): 0.987
relative viability ([3]; 2.53 µM): 1.07
relative viability ([3]; 8 µM): 1.02
relative viability ([4]; 0.08 µM): 1.09
relative viability ([4]; 0.253 µM): 1.06
relative viability ([4]; 0.8 µM): 1.11
relative viability ([4]; 2.53 µM): 0.705
relative viability ([4]; 8 µM): 0.982
